Experiments:
COX-2 gene = assay: RT-PCR analysis of COX-2 mRNA; assay type: cell-based, human; settings: HUVEC, cPGI 10 μM, 12 h, FIG. 5 lane 3
Experimental: For analysis of IL-13, human vascular endothelial cells (1.2×10^4 cells/cm^2) were stimulated with cPGI (10 μM) for 12 h, and total RNA was prepared from stimulated cells with Isogen (Nippon Gene). For analysis of COX-2, human vascular endothelial cells (1.2×10^4 cells/cm^2) were pretreated with TNF-α (1 ng/ml) and IL-1b (20 ng/ml) for 1 h, and then treated with cPGI (0, 10 μM), anti-human IL-13 monoclonal antibody (0, 0.5 μg/ml) and control IgG (0, 0.5 μg/ml) for 12 h to prepare total RNA. The total RNA (0.5 μg) was used for analysis by SuperScript RT-PCR system (Invitrogen) according to the manufacturer's instructions. The oligonucleotide primers used were IL-13-s (5′-[…]-3′ (SEQ ID NO: 6); sense) and IL-13-as (5′-[…]-3′ (SEQ ID NO: 7); antisense) for human IL-13, β-actin-s (5′-[…]-3′ (SEQ ID NO: 8); sense) and β-actin-as (5′-[…]-3′ (SEQ ID NO: 9); antisense) for human β-actin, and COX-2-s (5′-[…]-3′ (SEQ ID NO: 10); sense) and COX-2-as (5′-[…]-3′ (SEQ ID NO: 11); antisense) for human COX-2. For each PCR amplification, 1 μl of cDNA was used in a 50 μl reaction. Reverse transcription-PCR (RT-PCR) for β-actin (25 cycles) was used as an internal control for mRNA abundance. For IL-13 and COX-2 genes, the number of cycles ranged from 25 to 45. […] Samples were normalized based on equivalent expression of β-actin.

[1] = tested on: promoter region of the human IL-13 gene; assay: IL-13 promoter-luciferase reporter assay; assay type: cell-based; settings: 10 μM cPGI, 24 h
Description: Promoter sequences of human IL-13 gene containing PPRE and GATA elements were isolated from human leukocyte genomic DNA by polymerase chain reaction (PCR) with primers A (5′-[…]-3′ (SEQ ID NO: 3); sense) and D (5′-[…]-3′ (SEQ ID No: 4); antisense) for the 1.3 kbp fragment, and B (5′-[…]-3′ (SEQ ID NO: 5); sense) and D for the 0.4 kbp fragment. Each fragment was inserted into the MluI-XbaI site of pGL3-promoter vector (Promega, Madison, Wis.). Human vascular endothelial cells (1.2×10^4 cells/cm^2) were cotransfected with 0.2 μg of IL-13-luciferase reporter vector, 0.1 μg of β-galactosidase expression vector and 0.7 μg of expression vector for PPARδwt, PPARδdn, CREBwt, CREBdn or mock vector by use of TransIT LT-1. After 17 h of transfection, cells were incubated in fresh EGM-2 containing 2% FBS. After another 24 h, the cells were washed with PBS, and cultured in EGF-2 containing 2% FBS with 10 μM cPGI for 24 h to quantify luciferase and β-galactosidase activities as described previously (Hatae et al., J. Biol. Chem. (2001) 276: 46260-7). The luciferase activity of the extract was normalized to β-galactosidase activity.

[2] = tested on: adhesion between human vascular endothelial cells and monocytic leukocyte U937 cells; assay: Adherence assay of U937 cells to endothelial monolayers; assay type: cell-based; settings: HUVEC
Experimental: HUVEC (2.5×10^4 cells/cm^2) were cultured in 12-well plates. After 24 h, confluent monolayers were used for adherence assays. Monolayers were preincubated in EGM-2 containing 2% FBS, 0 or 10 ng/ml TNF-α, 0 or 10 ng/ml IL-13 and 0 or 10 μM cPGI with or without anti-IL-13 monoclonal antibody (0.5 μg/ml) at 37° C. for 0 to 24 h. Human monocyte leukocyte U937 cells were cultured in RPMI 1640 (Gibco-Invitrogen) containing 10% FBS, 100 U/ml penicillin and […] streptomycin , labeled with 2.5 μM calcein-AM (Molecular Probes, Eugene, Oreg.) at room temperature for 45 min, washed and resuspended in serum-free EGM-2. The calcein-labeled U937 cells (8×10^4 cells/well) were added to pretreated endothelial cells and incubated with cPGI (0, 10 μM), recombinant IL-13 (0, 10 ng/ml) and anti-IL-13 monoclonal antibody (0, 0.5 μg/ml). U937 cells were allowed to adhere to pretreated endothelial cells for 30 min at 37° C. Adherence was assessed with a fluorescence image analyzer (FLA-2000; Fujifilm, Tokyo, Japan). Plates were scanned before and after washing for total and adherent cells, respectively, and relative adherence was calculated (fold of control).

[3] = 413 bp IL-13 promoter fragment, FIG. 3

SMILES: CCCCC[C@H](O)/C=C/[C@@H]1[C@H]2C/C(=C/CCCC(=O)O)C[C@H]2C[C@H]1O [cPGI, carbaprostacyclin]
- inducible expression of COX-2 (TNF-α and IL-1 induced) (COX-2 gene): significantly inhibited
- cPGI-dependent IL-13 promoter luciferase activity on coexpression of dominant negative CREB (CREBdn) [1, 3]: no effect
- cPGI-dependent increase of IL-13 promoter luciferase activity on cotransfection of dominant negative PPARδ (PPARδdn) [1, 3]: suppressed
- luciferase activity of reporter vector containing GATA sequences without PPREs ([1]; HUVEC, FIG. 2B): increased only weakly
- luciferase activity of reporter vectors containing the PPRE consensus region of the IL-13 promoter ([1]; HUVEC, FIG. 2B): significantly increase
- luciferase activity of vectors from which the PPRE consensus sequence region had been deleted ([1]; HUVEC, FIG. 2B): not increased
- TNF-α-induced monocytic leukocyte-endothelial cell adhesion ([2]; TNF-α 10 ng/ml plus antibody 0.5 μg/ml, cPGI 10 μM or IL-13 10 ng/ml, 24 h, FIG. 4D lanes 3-5): inhibited
- adhesion over time, TNF-α pretreatment in the presence of cPGI ([2]; TNF-α 10 ng/ml, cPGI 10 μM, 0 h to 24 h, FIG. 4E): dramatically inhibited
